Laboratory results reported in patent US8771744B2, “Barrier composition” (Prosonix Limited, priority 2009, dated 2014).
Where a name gives a salt, the structure may show the parent alone.

Experiment: Particle size distribution (Sympatec) of spray dried, ultrasound treated particles
Assay type: physicochemical
Text: Preferably the active particles of the invention have a volume diameter of less than 10 μm, more preferably at least 90 wt % of the active ingredient particles in a given composition have a diameter equal to or lower than 10 μm as determined by measuring the characteristic equivalent sphere diameter, known as volume diameter, by laser diffraction as described above, preferably using a Malvern or equivalent apparatus. The parameters taken into consideration are the volume diameters (VD) in microns of 10%, 50% and 90% of the particles expressed as d(10), d(50) and d(90), respectively, which correspond to the mass diameter assuming a size independent density for the particles.
Fenoterol hydrobromide (5 g) was dissolved in 100 mL of methanol. The samples of Fenoterol hydrobromide powder collected in the ultrasonic chamber were produced using a Büchi-290 laboratory-scale spray dryer (Büchi, Switzerland). The solution was atomized using nitrogen at 7 bar flowing at approximately at 10 Lpm (Liter/minute). The aspirator was set at 100% and flow rate of solution was set to […]. The gas temperature was set to 120° C. Fenoterol hydrobromide particles were collected from both the cyclone separator and the PTFE bag filter assembly. The resultant amorphous particles contained 3000 ppm (0.3% w/w) residual methanol. The particles were placed into an ultrasonic chamber fitted with a 20 kHz ultrasonic transducer on its base (Prosonix SL 10) as shown in FIG. 8. The chamber was heated to 40° C. using a thermoregulated water jacket. Ultrasound at 20 W power was applied between 30 minutes and 2 hour. The resulting particles were characterized by optical microscopy and DSC (Differential Scanning Calorimetry). The size of the particles were typically in the range of 1-7 μm. In this specific example d(10)=0.91 μm; d(50)=1.76 μm; d(90)=3.38 μm (see FIG. 4).

[1] = spray dried particles after dry powder ultrasound treatment, FIG. 4

SMILES: CC(Cc1ccc(O)cc1)NCC(O)c1cc(O)cc(O)c1 (stereo not shown) [Fenoterol hydrobromide]
- size of the particles (spray dried particles after dry powder ultrasound treatment (20 kHz, 20 W, 40° C., 30 minutes to 2 hour), typical range): 1-7 μm
- d(10) [1]: 0.91 μm
- d(50) [1]: 1.76 μm
- d(90) [1]: 3.38 μm
